Measurements from patent US20260374814A1, “Synthetic Peptide And Construct” (TOAGOSEI CO., LTD, priority 2022, published 2026).
FAM = 5(6)-carboxyfluorescein

Test system: NSC-34 cells
Experiment: Evaluation of Cell Membrane Permeability by Flow Cytometry (transfer of FAM construct into NSC-34 cells)
Assay type: cell-based
Conditions: NSC-34 cells (mouse motor neuron-like hybrid cell line); 20 μM in culture medium; 20 hours at 37 °C, 5% CO2; flow cytometer, detector FL2
Experimental: As the eukaryotic cells, NSC-34 cells (mouse motor neuron-like hybrid cell line) were used and the cell membrane permeability of the peptides 1 to 3 was analyzed. As a culture medium of the NSC-34 cell, 10% fetal bovine serum (FBS)-containing Dulbecco's modified Eagle's medium (DMEM (Cat No. 044-29765, manufactured by FUJIFILM Wako Pure Chemical Corporation)) was used. The samples 1 to 3 were each dissolved in dimethyl sulfoxide (DMSO) to prepare sample solutions 1 to 3 with a sample concentration of 4 mM. Then, the sample solutions were diluted in the culture medium to prepare 40 μM sample solutions 1 to 3. The aforementioned prepared sample solutions 1 to 3 were used in Examples 1 to 3, and the FAM solution was used in Reference Example 1.
The NSC-34 cell was suspended in the culture medium to prepare a cell suspension of 2×10^5 cells/mL. The cell suspension was added by 1 mL to a well of a commercially available six-hole (well) plate (manufactured by AGC TECHNO GLASS Co., Ltd.) so as to seed the NSC-34 cell to be 2×10^5 cells/well. Next, 1 mL of the 40 μM sample solution 1 was added to the well so that the sample concentration in the culture medium in the well became 20 μM. After that, the six-well plate was left at rest in a cell culture apparatus, and incubated for 20 hours at 37 °C under a 5% CO2 condition.
After the 20-hour incubation, the culture supernatant was removed from the well and the cells in the well were cleaned twice with 1 mL of PBS. Next, 100 μL of the 0.25% trypsin/EDTA solution was added to the well and the incubation was performed for three minutes at 37 °C. After the incubation, 900 μL of the culture medium was added to the well to deactivate the trypsin. Subsequently, the cell suspension in the well was transferred to a tube and the cells were collected. This tube was subjected to five-minute centrifugal separation at 4 °C under a condition of 210×g. […]
Regarding the obtained cells (cell pellet), the cell membrane permeability of the sample 1 was analyzed using a flow cytometer. […]
Using the aforementioned flow cytometer, gating based on forward scatter (FSC) and side scatter (SSC) was performed to set a gate about a cell group to be analyzed, and the fluorescence intensity was measured about the cell group in this gate. […] The fluorescence intensity was measured using a fluorescence detector FL2 of the flow cytometer (optimum detection wavelength around 543 nm) capable of detecting the fluorescence wavelength of FAM. Regarding this measurement result, the analysis was performed using commercially available analysis software “FlowJo” (manufactured by TreeStar) to obtain mean fluorescence intensity (MFI) of the cell group to be measured. […]

Row | Substance | MFI (mean fluorescence intensity)
1 | 5(6)-carboxyfluorescein [Reference Example 1, reference compound] | 10.9
2 | Ac-SASAG-FAM [Example 1] | 20.9
3 | Ac-SASASAG-FAM (Ac-SASASAG-{FAM}) [Example 2, construct: peptide 2 (SASASAG), N-terminus acetylated, with FAM bonded to the C-terminus amino acid residue] | 19.2
4 | Ac-SASASASAG-FAM (Ac-SASASASAG-{FAM}) [Example 3, construct: peptide 3 (…), N-terminus acetylated, with FAM bonded to the C-terminus amino acid residue] | 22.8
